We go through 48 compounds from PMC12257397, “Scaffold Hopping Strategy toward New 4‑Aminoquinazolines Active Against Extracellular and Intracellular Mycobacterium tuberculosis” (ACS Medicinal Chemistry Letters, 2025).

Values after ≈ are worked out from the molar mass of the structure shown. Like-named read-outs stand apart in the source and are kept apart here.

In data set [1] the test system is M. tuberculosis H37Rv (ATCC 27294). Description: MIC by resazurin reduction microplate assay (REMA). It counts as cell-based. Particulars: Mycobacterium tuberculosis, converted from μg/mL to μM.
For data set [2], the system named is M. tuberculosis H37Rv-LP (ATCC 25618). Description: microbe, parasite or virus in culture. The data set is classed as cell-based. Conditions: concentration inhibiting 90% of growth, 5 days, read-out: MIC parental wild-type strain H37Rv-LP.
Data set [3] in a line: in vitro. Conditions: human.
Data set [4] in a line: in vitro. Particulars: human. This is another data set of the same source.
The nature of data set [5]: in vitro. Conditions: human. This is another data set of the same source.
[6] abbreviates: Mycobacterium tuberculosis, 120 h.

Consider `Cc1nc(NCCc2ccccc2)c2ccccc2n1` [9a], for which the MIC in data set [1] worked out at 38 µM (≈ 10 µg/mL).

Consider `COc1ccc2nc(C)nc(NCCc3ccccc3)c2c1` [9b], for which, in data set [1], the MIC came out at 34.1 µM (≈ 10 µg/mL).

The compound `Cc1nc(NCCc2ccccc2)c2cc(Br)ccc2n1` [9c] showed an MIC in data set [1] of 7.3 µM (≈ 2.5 µg/mL).

In turn, `c1ccc(CCNc2ncnc3ccccc23)cc1` [9e] registered an MIC in data set [1] of 80.2 µM (≈ 20 µg/mL).

In data set [1], `COc1ccc(CCNc2nc(C)nc3ccccc23)cc1` [10a] had an MIC of 34.1 µM (≈ 10 µg/mL).

In data set [1], `COc1ccc(CCNc2nc(C)nc3ccc(OC)cc23)cc1` [10b] gave an MIC of 30.9 µM (≈ 9.99 µg/mL).

In data set [1], `COc1ccc(CCNc2nc(C)nc3ccc(Br)cc23)cc1` [10c] showed an MIC of 13.4 µM (≈ 4.99 µg/mL).

Consider `COc1ccc(CCNc2nc(C)nc3ccc(I)cc23)cc1` [10d], for which the figures for the MIC in data set [1] and in data set [2] (setting [6]) were 1.5 µM (≈ 0.629 µg/mL) and 0.92 µM (≈ 0.386 µg/mL), respectively. Also, the CC50 at 72 h in data set [3] (CC50 HepG2+Gal) amounted to 6.4 µM; in data set [3] (CC50 HepG2+Glu), 10.8 µM.

In turn, `COc1ccc(CCNc2ncnc3ccccc23)cc1` [10e] gave an MIC in data set [1] of 71.6 µM (≈ 20 µg/mL).

In data set [1], `Cc1nc(NCCc2ccc(Cl)cc2)c2ccccc2n1` [11a] showed an MIC of 16.8 µM (≈ 5 µg/mL).

The compound `COc1ccc2nc(C)nc(NCCc3ccc(Cl)cc3)c2c1` [11b] gave an MIC in data set [1] of 30.5 µM (≈ 10 µg/mL).

With `Cc1nc(NCCc2ccc(Cl)cc2)c2cc(Br)ccc2n1` [11c], the MIC in data set [1] was 13.3 µM (≈ 5.01 µg/mL).

Take `Cc1nc(NCCc2ccc(Cl)cc2)c2cc(I)ccc2n1` [11d]: the MIC is 0.73 µM (≈ 0.309 µg/mL) in data set [1] and 0.84 µM (≈ 0.356 µg/mL) in data set [2] (setting [6]). Further, the CC50 at 72 h in data set [3] (CC50 HepG2+Gal) stood at 3.3 µM; in data set [3] (CC50 HepG2+Glu), 4.2 µM.

For `Clc1ccc(CCNc2ncnc3ccccc23)cc1` [11e], the MIC in data set [1] was above 35.2 µM.

Take `Cc1nc(NCC(c2ccccc2)c2ccccc2)c2ccccc2n1` [12a]: in data set [1], the MIC was 29.5 µM (≈ 10 µg/mL).

In data set [1], `COc1ccc2nc(C)nc(NCC(c3ccccc3)c3ccccc3)c2c1` [12b] yielded an MIC of 27.1 µM (≈ 10 µg/mL).

In turn, `Cc1nc(NCC(c2ccccc2)c2ccccc2)c2cc(Br)ccc2n1` [12c] showed an MIC in data set [1] above 23.9 µM.

The compound `Cc1nc(NCC(c2ccccc2)c2ccccc2)c2cc(I)ccc2n1` [12d] yielded an MIC in data set [1] above 21.5 µM.

`c1ccc(C(CNc2ncnc3ccccc23)c2ccccc2)cc1` [12e] gave an MIC in data set [1] above 30.7 µM.

Consider `Cc1nc(NCCc2ccc(OC(F)(F)F)cc2)c2ccccc2n1` [13a], for which the MIC in data set [1] worked out at 7.2 µM (≈ 2.5 µg/mL).

In data set [1], `COc1ccc2nc(C)nc(NCCc3ccc(OC(F)(F)F)cc3)c2c1` [13b] gave an MIC of 13.3 µM (≈ 5.02 µg/mL).

For `Cc1nc(NCCc2ccc(OC(F)(F)F)cc2)c2cc(Br)ccc2n1` [13c], the MIC in data set [1] was 5.9 µM (≈ 2.51 µg/mL); in data set [2] (setting [6]), 3.4 µM (≈ 1.45 µg/mL). Also, the CC50 at 72 h is below 1 µM in data set [4], below 1 µM in data set [5], 1 µM in data set [3] (CC50 HepG2+Gal) and 1.5 µM in data set [3] (CC50 HepG2+Glu).

For `Cc1nc(NCCc2ccc(OC(F)(F)F)cc2)c2cc(I)ccc2n1` [13d], the MIC stood at 5.3 µM (≈ 2.51 µg/mL) in data set [1] and 3.7 µM (≈ 1.75 µg/mL) in data set [2] (setting [6]). In addition, the CC50 at 72 h worked out at 7.4 µM in data set [4], 7.3 µM in data set [5], 2.2 µM in data set [3] (CC50 HepG2+Gal) and 3.4 µM in data set [3] (CC50 HepG2+Glu).

With `FC(F)(F)Oc1ccc(CCNc2ncnc3ccccc23)cc1` [13e], in data set [1], the MIC amounted to 60 µM (≈ 20 µg/mL).

For `Cc1nc(NCCc2ccc(S(N)(=O)=O)cc2)c2ccccc2n1` [14a], the MIC in data set [1] was above 117 µM.

In data set [1], `COc1ccc2nc(C)nc(NCCc3ccc(S(N)(=O)=O)cc3)c2c1` [14b] had an MIC above 107 µM.

Compound `Cc1nc(NCCc2ccc(S(N)(=O)=O)cc2)c2cc(Br)ccc2n1` [14c] came in with an MIC in data set [1] above 94.9 µM.

`Cc1nc(NCCc2ccc(S(N)(=O)=O)cc2)c2cc(I)ccc2n1` [14d] displayed an MIC in data set [1] above 85.4 µM.

In data set [1], `NS(=O)(=O)c1ccc(CCNc2ncnc3ccccc23)cc1` [14e] came in with an MIC above 122 µM.

`Cc1ccc(CCNc2nc(C)nc3ccccc23)cc1` [15a] registered an MIC in data set [1] of 18 µM (≈ 4.99 µg/mL).

In data set [1], `COc1ccc2nc(C)nc(NCCc3ccc(C)cc3)c2c1` [15b] gave an MIC of 16.3 µM (≈ 5.01 µg/mL).

In data set [1], `Cc1ccc(CCNc2nc(C)nc3ccc(Br)cc23)cc1` [15c] yielded an MIC of 7 µM (≈ 2.49 µg/mL).

As to `Cc1ccc(CCNc2nc(C)nc3ccc(I)cc23)cc1` [15d], the values for the MIC in data set [1] and in data set [2] (setting [6]) were 3.1 µM (≈ 1.25 µg/mL) and 0.48 µM (≈ 0.194 µg/mL), respectively. Further, the CC50 at 72 h in data set [4] is 10.2 µM; in data set [5], 10.6 µM; in data set [3] (CC50 HepG2+Gal) it was 6.6 µM; in data set [3] (CC50 HepG2+Glu) it was 11.4 µM.

Compound `Cc1ccc(CCNc2ncnc3ccccc23)cc1` [15e] gave an MIC in data set [1] above 38 µM.

On to `CCc1ccc(CCNc2nc(C)nc3ccccc23)cc1` [16a], for which the MIC in data set [1] is 17.2 µM (≈ 5.01 µg/mL).

The compound `CCc1ccc(CCNc2nc(C)nc3ccc(OC)cc23)cc1` [16b] had an MIC in data set [1] of 15.6 µM (≈ 5.01 µg/mL).

On to `CCc1ccc(CCNc2nc(C)nc3ccc(Br)cc23)cc1` [16c], for which the figures for the MIC in data set [1], in data set [2] (setting [6]) and in data set [2] were 6.8 µM (≈ 2.52 µg/mL), 2 µM (≈ 0.741 µg/mL) and 2.0 µM (≈ 0.741 µg/mL), respectively. In addition, the CC50 at 72 h was determined as 1.6 µM in data set [3] (CC50 HepG2+Gal) and 4 µM in data set [3] (CC50 HepG2+Glu).

`CCc1ccc(CCNc2nc(C)nc3ccc(I)cc23)cc1` [16d]: the MIC is 6 µM (≈ 2.5 µg/mL) in data set [1] and 1.9 µM (≈ 0.793 µg/mL) in data set [2] (setting [6]). Besides, the CC50 at 72 h in data set [4] stood at 8.3 µM; in data set [5], 8.3 µM; in data set [3] (CC50 HepG2+Gal), 5.3 µM; in data set [3] (CC50 HepG2+Glu) it was 7.4 µM.

In data set [1], `CCc1ccc(CCNc2ncnc3ccccc23)cc1` [16e] displayed an MIC of 36 µM (≈ 9.99 µg/mL).

Consider `Cc1nc(NCCc2ccc3ccccc3c2)c2ccccc2n1` [17a], for which the MIC in data set [1] came to 8 µM (≈ 2.51 µg/mL).

Compound `COc1ccc2nc(C)nc(NCCc3ccc4ccccc4c3)c2c1` [17b] registered an MIC in data set [1] of 7.3 µM (≈ 2.51 µg/mL).

As for `Cc1nc(NCCc2ccc3ccccc3c2)c2cc(Br)ccc2n1` [17c], the MIC in data set [1] came out at 3.2 µM (≈ 1.26 µg/mL); in data set [2] (setting [6]), 2.5 µM (≈ 0.981 µg/mL). In addition, the CC50 at 72 h in data set [4] is below 1 µM; in data set [5], below 1 µM; in data set [3] (CC50 HepG2+Gal) it was 1.8 µM; in data set [3] (CC50 HepG2+Glu), 4.6 µM.

`Cc1nc(NCCc2ccc3ccccc3c2)c2cc(I)ccc2n1` [17d]: the MIC in data set [1] and in data set [2] (setting [6]) was 1.4 µM (≈ 0.615 µg/mL) throughout. For the same compound, the CC50 at 72 h was determined as 5.2 µM in data set [3] (CC50 HepG2+Gal) and 7.1 µM in data set [3] (CC50 HepG2+Glu).

In data set [1], `c1ccc2cc(CCNc3ncnc4ccccc34)ccc2c1` [17e] had an MIC above 16.7 µM.

In the case of `Cc1nc(NCCCc2ccccc2)c2ccccc2n1` [18a], the values for the MIC in data set [1], in data set [2] (setting [6]) and in data set [2] were 4.5 µM (≈ 1.25 µg/mL), 1.6 µM (≈ 0.444 µg/mL) and 1.6 µM (≈ 0.444 µg/mL), respectively. Besides, the CC50 at 72 h in data set [3] (CC50 HepG2+Gal) was determined as 2.6 µM; in data set [3] (CC50 HepG2+Glu), 7.7 µM.

As to `c1ccc(CCCNc2ncnc3ccccc23)cc1` [18e], the results for the MIC in data set [1] and in data set [2] (setting [6]) were 19 µM (≈ 5 µg/mL) and 24 µM (≈ 6.32 µg/mL), respectively. The CC50 at 72 h is below 1 µM in data set [4], below 1 µM in data set [5], 2.5 µM in data set [3] (CC50 HepG2+Gal) and 10.9 µM in data set [3] (CC50 HepG2+Glu).

For `NNC(=O)c1ccncc1` [19 (INH), isoniazid, reference compound], in data set [1], the MIC is 2.3 µM (≈ 0.315 µg/mL).

In the case of `CN[C@@H]1C[C@H]2O[C@@](C)([C@@H]1OC)n1c3ccccc3c3c4c(c5c6ccccc6n2c5c31)C(=O)NC4` [21 (STA), staurosporine, reference compound], the figures for the CC50 in data set [3] (CC50 HepG2+Gal) and in data set [3] (CC50 HepG2+Glu) were 0.04 µM and 0.03 µM, respectively.
